# Several values for one entry are separate records, joined by “and”; a condition that tells them apart may be missing. Identical values can stand only once.
# System: 855422-203-R-J1-PDC complex spheroid viability
# Assay: Anticancer human tumor 855422-203-R-J1-PDC patient-derived bladder carcinoma cell line growth inhibition [POLQ]
# Settings: for viability, T/C: stronger effect = lower value
# Protocol: Multicellular complex tumor spheroid response to Polymerase (POL) inhibitors (novobiocin, ART-558, RP6685) in combination with a variety of drugs and investigational agents in selected tumor cell lines
# The POL inhibitors (novobiocin, ART-558, and RP6685) were evaluated both individually and in combination with standard of care and investigational anticancer small molecules within a complex spheroid model of solid tumors. . Complex spheroids include a stromal component modeled by human endothelial cells (HUVEC) and fibroblasts modeled by human mesenchymal stem cells (MSCs). The concentration ranges selected for each drug and investigational agent were based upon clinically achievable concentrations if the clinical Cmax of the agent was known.
# Compounds. The drugs and investigational agents: novobiocin (NSC847541), ART-558 (NSC835418), RP-6685 (NSC848927), peposertib (NSC802822), ceralasertib (NSC780249), elimusertib (NSC800525), camonsertib (NSC841442), AZD-1390 (NSC803789), olaparib (NSC753686), talazoparib (NSC767125), rucaparib (NSC756644), sotorasib (NSC818433), MRTX-1133 (NSC836407), SN-38 (NSC673596), topotecan (NSC609699), epotoside (NSC141540), doxorubicin (NSC123127), gemcitabine (NSC613327), 5-fluorouracil (NSC19893), paclitaxel (NSC125973), vemurafenib (NSC761431), MSA-2 (NSC828583), SN-011 (NSC837082), adavosertib (NSC754352), prexasertib (NSC758257), carboplatin (NSC241240) and oxaliplatin (NSC266046), were obtained from the National Cancer Institute (NCI) Developmental Therapeutics Program Chemical Repository (21). The FDA-approved anticancer drug set is available from the Developmental Therapeutics Program at https://dtp.cancer.gov/organization/dscb/obtaining/. […] The stock solutions were prepared in dimethyl sulfoxide (DMSO, Sigma-Aldrich, St. Louis, MO, cat. D2650), except for the platinum compounds which were prepared in saline (Quality Biological, Gaithersburg, MD, cat. 114-055-101), at 800-fold the tested concentration and stored at -70 degrees C prior to their use. All drugs and investigational agents were tested over a range starting from a high concentration at or near the clinical Cmax and decreasing in half-log increments. If the clinical Cmax for an agent had not been determined, the highest concentration tested was 10 microM, except for SN-38, which was tested at a high concentration of 1 microM.
# Cell Culture. All cells were maintained in an incubator at 37 degrees C and 5% CO2 with 95% humidity. The PDC lines were cultured according to standard operating procedures established by the NCI PDMR (https://pdmr.cancer.gov). Table 3 of the manuscript, lists the cell lines along with the number of the three cell types plated to form the mct-spheroids and media for tumor cell growth. After thawing, all PDC lines, except 997537-175-T-J1-PDC and 415267-285-R-J2-PDC, were cultured in Matrigel-coated flasks prepared with a working solution of 1X Ham's F-12 nutrient mix, without supplementation (Thermo Fisher Scientific, cat. 11765054), 100 U/mL penicillin-streptomycin (Thermo Fisher Scientific, cat. 15140122), and 2.5% Matrigel (Corning Inc., Corning, NY, cat. 354248) for the first three passages. The two PDC lines 997537-175-T-J1-PDC and 415267-285-R-J2-PDC were cultured on uncoated flasks. The 857933-349-R-J2-PDC line was cultured in 6C/Colon 1B media containing advanced DMEM/F-12 (Thermo Fisher Scientific, cat. 12634028), 10 mM HEPES (Thermo Fisher Scientific, cat. 15630080), 1X GlutaMAX supplement (Thermo Fisher Scientific, cat. 35050061), 0.1 mg/mL primocin (InvivoGen, San Diego, CA, cat. ant-pm-2), 10% defined fetal bovine serum, heat inactivated (HyClone Laboratories Inc., Logan, UT, cat. SH30070.03HI), 50% L-WRN conditioned media (ATCC, cat. CRL-3276), 1.25 mM N-Acetyl-L-cysteine (Sigma-Aldrich, cat. A9165), 10 mM nicotinamide (Sigma-Aldrich, cat. N0636), 1X B-27 supplement (Thermo Fisher Scientific, cat. 17504044), 1X N-2 supplement (Thermo Fisher Scientific, cat. […]
# 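Further: spheroids exposed to compounds for seven days before readout.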
compound,measurement,setting,value
C=CCn1c(=O)c2cnc(Nc3ccc(N4CCN(C)CC4)cc3)nc2n1-c1cccc(C(C)(C)O)n1,"viability, T/C",compound 0.00316 µM,100% and 104% and 107%
same,"viability, T/C",compound 0.01 µM,100% and 120% and 111%
same,"viability, T/C",compound 0.0316 µM,106% and 108% and 122%
same,"viability, T/C",compound 0.1 µM,90.9% and 98.5% and 98%
same,"viability, T/C",compound 0.316 µM,118% and 116% and 99.9%
same,"viability, T/C",compound 1 µM,94.8% and 187% and 136%
same,IC50,curve of compound,> 1000 nM
Cn1ncnc1[C@H]1c2n[nH]c(=O)c3cc(F)cc(c23)N[C@@H]1c1ccc(F)cc1 + Nc1ccc(C#CCN(C(=O)Cc2ncc(C(F)(F)F)cc2C(F)(F)F)c2ccc(F)cc2)nn1,IC50,"curve of first compound, second compound 0.0316 µM",> 100 nM
same,IC50,"curve of first compound, second compound 0.1 µM",> 100 nM
same,IC50,"curve of first compound, second compound 0.316 µM",> 100 nM
same,IC50,"curve of first compound, second compound 1 µM",> 100 nM
same,IC50,"curve of first compound, second compound 3.16 µM",> 100 nM
same,IC50,"curve of first compound, second compound 10 µM",> 100 nM
same,"viability, T/C","second compound 0.0316 µM, first compound 0.000316 µM",96.1%
same,"viability, T/C","second compound 0.0316 µM, first compound 0.001 µM",125%
same,"viability, T/C","second compound 0.0316 µM, first compound 0.00316 µM",96%
same,"viability, T/C","second compound 0.0316 µM, first compound 0.01 µM",82%
same,"viability, T/C","second compound 0.0316 µM, first compound 0.0316 µM",110%
same,"viability, T/C","second compound 0.0316 µM, first compound 0.1 µM",132%
same,"viability, T/C","second compound 0.1 µM, first compound 0.000316 µM",88.6%
same,"viability, T/C","second compound 0.1 µM, first compound 0.001 µM",157%
same,"viability, T/C","second compound 0.1 µM, first compound 0.00316 µM",92%
same,"viability, T/C","second compound 0.1 µM, first compound 0.01 µM",104%
same,"viability, T/C","second compound 0.1 µM, first compound 0.0316 µM",119%
same,"viability, T/C","second compound 0.1 µM, first compound 0.1 µM",147%
same,"viability, T/C","second compound 0.316 µM, first compound 0.000316 µM",91.7%
same,"viability, T/C","second compound 0.316 µM, first compound 0.001 µM",154%
same,"viability, T/C","second compound 0.316 µM, first compound 0.00316 µM",91.4%
same,"viability, T/C","second compound 0.316 µM, first compound 0.01 µM",106%
same,"viability, T/C","second compound 0.316 µM, first compound 0.0316 µM",96.2%
same,"viability, T/C","second compound 0.316 µM, first compound 0.1 µM",181%
same,"viability, T/C","second compound 1 µM, first compound 0.000316 µM",98.8%
same,"viability, T/C","second compound 1 µM, first compound 0.001 µM",154%
same,"viability, T/C","second compound 1 µM, first compound 0.00316 µM",96%
same,"viability, T/C","second compound 1 µM, first compound 0.01 µM",93.2%
same,"viability, T/C","second compound 1 µM, first compound 0.0316 µM",115%
same,"viability, T/C","second compound 1 µM, first compound 0.1 µM",153%
same,"viability, T/C","second compound 3.16 µM, first compound 0.000316 µM",92%
same,"viability, T/C","second compound 3.16 µM, first compound 0.001 µM",135%
same,"viability, T/C","second compound 3.16 µM, first compound 0.00316 µM",95.7%
same,"viability, T/C","second compound 3.16 µM, first compound 0.01 µM",106%
same,"viability, T/C","second compound 3.16 µM, first compound 0.0316 µM",134%
same,"viability, T/C","second compound 3.16 µM, first compound 0.1 µM",122%
same,"viability, T/C","second compound 10 µM, first compound 0.000316 µM",93.2%
same,"viability, T/C","second compound 10 µM, first compound 0.001 µM",110%
same,"viability, T/C","second compound 10 µM, first compound 0.00316 µM",88.3%
same,"viability, T/C","second compound 10 µM, first compound 0.01 µM",100%
same,"viability, T/C","second compound 10 µM, first compound 0.0316 µM",102%
same,"viability, T/C","second compound 10 µM, first compound 0.1 µM",132%
COc1ccc([C@@H](O)c2cc(-c3ncnc4cc(N5CCOCC5)ccc34)c(F)cc2Cl)nn1,"viability, T/C",compound 0.0316 µM,86.6% and 104% and 118%
same,"viability, T/C",compound 0.1 µM,103% and 107% and 96.5%
same,"viability, T/C",compound 0.316 µM,94.5% and 103% and 109%
same,"viability, T/C",compound 1 µM,87.2% and 91.5% and 88.8%
same,"viability, T/C",compound 3.16 µM,60.9% and 109% and 69.5%
same,"viability, T/C",compound 10 µM,32% and 58.2% and 37.4%
same,IC50,curve of compound,4870 nM and > 10000 nM and 6350 nM
Nc1ccc(C#CCN(C(=O)Cc2ncc(C(F)(F)F)cc2C(F)(F)F)c2ccc(F)cc2)nn1,"viability, T/C",compound 0.0316 µM,101% [middle of 13 runs]
same,"viability, T/C",compound 0.1 µM,104% [middle of 13 runs]
same,"viability, T/C",compound 0.316 µM,107% [middle of 13 runs]
same,"viability, T/C",compound 3.16 µM,95.7% [middle of 13 runs]
same,"viability, T/C",compound 10 µM,90.4% [middle of 13 runs]
same,IC50,"compound alone, run of 01/19/2024",> 10000 nM

# Source: PubChem BioAssay AID1963838 (Molecular Pharmacology Branch, DTP, NCI, 2024)
